Tests used:
Mg1LysM = molecular target: T1, Mg1LysM (Zymoseptoria tritici, UniProt F9XHX3); assay: ligand-induced polymerization, centrifugation pellet with methylene blue; format: binding; conditions: 200 µM protein stock mixed 1:1 with 2 mM chitohexaose; room temperature overnight; positive control
T1 construct: E. coli-produced; single LysM; borders and tag not described; ligand-independent homodimer

Mgx1LysM = molecular target: T2, Mgx1LysM (Zymoseptoria tritici, UniProt P9WEM2); assay: as above; format: binding; conditions: 200 µM protein stock mixed 1:1 with 2 mM chitohexaose; room temperature overnight
T2 construct: mature protein, signal peptide removed; E. coli Origami, pETSUMO; 6xHis-SUMO tag cleaved with ULP1; single LysM
T2 sequence (P9WEM2 19-103): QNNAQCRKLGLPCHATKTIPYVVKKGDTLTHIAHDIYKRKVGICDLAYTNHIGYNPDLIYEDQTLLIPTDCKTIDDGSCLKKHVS

T1 sequence (F9XHX3 19-97): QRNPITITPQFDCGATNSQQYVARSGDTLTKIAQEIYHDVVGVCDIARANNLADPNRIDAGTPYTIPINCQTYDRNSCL

CC(=O)N[C@H]1[C@H](O[C@H]2[C@H](O)[C@@H](NC(C)=O)[C@H](O[C@H]3[C@H](O)[C@@H](NC(C)=O)C(O)O[C@@H]3CO)O[C@@H]2CO)O[C@H](CO)[C@@H](O[C@@H]2O[C@H](CO)[C@@H](O[C@@H]3O[C@H](CO)[C@@H](O[C@@H]4O[C@H](CO)[C@@H](O)[C@H](O)[C@H]4NC(C)=O)[C@H](O)[C@H]3NC(C)=O)[C@H](O)[C@H]2NC(C)=O)[C@@H]1O (some centres unmarked) [chitohexaose]
ligand-induced polymerization, centrifugation pellet with methylene blue (Mg1LysM): protein pellets (red arrowheads) as a consequence of polymerization for Mgx1LysM, Mg1LysM, and RiSLM | ligand-induced polymerization, centrifugation pellet with methylene blue (Mgx1LysM): a clear Mgx1LysM pellet emerged upon incubation with chitin, and not in the absence
